Assay results: paper PMC10143423, “Endoplasmic Reticulum-Targeting Two-Photon Fluorescent Probe for CYP1A Activity and Its Imaging Application in Endoplasmic Reticulum Stress” (Molecules, 2023)
One block for each molecule: values may come before it.

What was measured:
CYP1A1 = molecular target: T1, CYP1A1 (Homo sapiens, UniProt P04798); test: ERNM O-demethylation enzyme kinetics in recombinant CYP1A1; assay type: biochemical
T1 construct: purchased BD Biosciences (Woburn, MA, USA)
T1 sequence (P04798 1-512): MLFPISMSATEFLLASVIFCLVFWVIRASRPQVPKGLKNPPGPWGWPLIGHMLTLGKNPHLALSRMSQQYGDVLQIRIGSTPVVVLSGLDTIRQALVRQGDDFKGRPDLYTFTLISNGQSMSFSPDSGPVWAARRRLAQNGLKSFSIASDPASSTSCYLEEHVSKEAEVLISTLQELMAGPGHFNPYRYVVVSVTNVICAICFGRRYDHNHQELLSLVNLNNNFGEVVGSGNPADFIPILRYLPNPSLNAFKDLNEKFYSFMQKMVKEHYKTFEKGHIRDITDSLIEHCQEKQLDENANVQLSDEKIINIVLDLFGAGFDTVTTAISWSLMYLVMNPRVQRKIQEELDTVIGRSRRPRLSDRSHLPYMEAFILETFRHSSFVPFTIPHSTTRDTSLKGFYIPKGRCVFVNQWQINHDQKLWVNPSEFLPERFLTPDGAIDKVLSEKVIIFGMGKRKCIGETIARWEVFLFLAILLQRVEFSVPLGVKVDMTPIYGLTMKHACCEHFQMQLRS
Experimental: (§1) The incubation sample consisted of NADPH-generating system (including NADP^+, magnesium chloride, glucose-6-phosphate, and glucose-6-phosphate dehydrogenase), and human liver microsomes or recombinant human CYP enzyme in potassium phosphate buffer (100 mM, pH 7.4). The total volume of the incubation mixture is 200 μL. Fluorescent substrate was dissolved in DMSO, and was pre-diluted to the working concentrations. If necessary, blank samples without NADPH or without enzymes will be set up as negative controls. The incubation reaction was initiated by adding NADP^+ after pre-incubation at 37 °C for 3 min. In addition, ice acetonitrile (100 µL) was added into the incubation samples for terminating the reaction progress. Briefly, CYP1A1 (5 nM) or CYP1A2 (5 nM) were incubated with ERNM (1, 5, 10, 15, 50, 100, 200 μM) in 200 μL of the incubation mixture in the presence of NADPH-generating systems. After incubation for 30 min, the dealkylated metabolite was measured by quantifying the intensity of fluorescence signal at 558 nm that was excited at 450 nm. Data were analyzed using GraphPad Prism 8.0 (GraphPad Software, Inc., San Diego, CA, USA).

CYP1A2 = molecular target: T2, CYP1A2 (Homo sapiens, UniProt P05177); test: ERNM O-demethylation enzyme kinetics in recombinant CYP1A2; assay type: biochemical
T2 construct: purchased BD Biosciences (Woburn, MA, USA)
T2 sequence (P05177 1-516): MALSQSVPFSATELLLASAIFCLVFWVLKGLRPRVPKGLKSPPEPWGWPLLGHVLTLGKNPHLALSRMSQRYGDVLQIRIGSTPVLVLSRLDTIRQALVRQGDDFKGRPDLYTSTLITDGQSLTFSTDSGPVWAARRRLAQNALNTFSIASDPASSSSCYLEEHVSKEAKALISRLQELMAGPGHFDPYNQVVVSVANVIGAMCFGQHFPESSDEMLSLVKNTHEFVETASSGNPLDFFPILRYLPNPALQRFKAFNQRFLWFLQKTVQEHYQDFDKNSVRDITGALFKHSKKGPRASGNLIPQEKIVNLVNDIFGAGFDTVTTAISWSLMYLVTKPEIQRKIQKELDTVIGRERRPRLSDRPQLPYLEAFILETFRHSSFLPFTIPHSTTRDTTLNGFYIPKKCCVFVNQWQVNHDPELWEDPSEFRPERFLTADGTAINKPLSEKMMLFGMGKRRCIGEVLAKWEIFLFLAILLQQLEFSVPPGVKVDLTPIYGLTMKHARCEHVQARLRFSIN
Experimental: as §1

[1] = tested on: recombinant human CYP isoenzymes; test: Fluorescence response of ERNM toward various recombinant human CYPs; assay type: biochemical; conditions: CYPs 15 nM, ERNM 10 μM, 30 min, 37 °C, fluorescence 558 nm
Experimental: The incubation sample consisted of NADPH-generating system (including NADP^+, magnesium chloride, glucose-6-phosphate, and glucose-6-phosphate dehydrogenase), and human liver microsomes or recombinant human CYP enzyme in potassium phosphate buffer (100 mM, pH 7.4). The total volume of the incubation mixture is 200 μL. Fluorescent substrate was dissolved in DMSO, and was pre-diluted to the working concentrations. If necessary, blank samples without NADPH or without enzymes will be set up as negative controls. The incubation reaction was initiated by adding NADP^+ after pre-incubation at 37 °C for 3 min. […]
To reveal the enzyme specificity for ERNM, the human recombinant CYP enzymes including CYP1A1, CYP1A2, CYP1B1, CYP2A6, CYP2A13, CYP2B6, CYP2C8, CYP2C9, CYP2C18, CYP2C19, CYP2D6, CYP2E1, CYP2J2, CYP3A4, CYP3A5, CYP4A11, CYP4F2, CYP4F3, and CYP4F12 (15 nM) were incubated with ERNM (the in-system concentration of ERNM in the incubation system is 10 μM) in 200 μL of the incubation mixture in the presence of NADPH-generating systems. After incubation for 30 min at 37 °C, the dealkylated metabolite was measured by quantifying the intensity of fluorescence signal at 558 nm that was excited at 450 nm. Data were analyzed using GraphPad Prism 8.0 (GraphPad Software, Inc., San Diego, CA, USA).

A549 cells [2] = test: Colocalization of ERNM with ER-Tracker in living cells; assay type: cell-based; conditions: co-incubated with ER-Tracker Red, two-photon excitation
Experimental: The systematic evaluation of ERNM confirmed its application in complex biosystems, subsequent work is related to the investigation of the subcellular localization of ERNM in living cells. Briefly, ERNM was co-incubated with a commercial ER-Tracker (red) in A549 cells, and then imaged under two-photon (ERNM) and single-photon (ER-Tracker) excitation conditions using confocal fluorescence microscope.
(§2) A549 cells were grown in RPMI-1640 culture medium (containing 10% FBS). A549 cells were seeded and incubated at 37 °C overnight. Then, A549 cells divided into different experimental groups were treated with DTT (dithiothreitol, the in-system concentration of DTT in the incubation system is 2.5 mM) for 0, 1, 2, and 4 h. The adherent cells were washed, and ERNM was added into the cell culture media (the in-system concentration of ERNM in the incubation system is 25 μM) and incubated for 60 min. Then, the cells were rinsed with PBS for at least 3 times to remove the extracellular probe. The cell images were obtained using confocal microscope (Olympus, FV1000), and the excitation wavelength was set at 800 nm and fluorescent emission windows of 520–560 nm.

A549 cells [3] = test: CYP1A activity imaged by ERNM in DTT-induced ER stress cell model; assay type: cell-based; conditions: DTT 2.5 mM for 0, 1, 2, 4 h, imaged with ERNM 25 μM
Experimental: as §2

CYP1A = test: Inhibition of ERNM O-demethylation in human liver microsomes by selective CYP inhibitors; assay type: biochemical; conditions: inhibitor 2.5 μM, ERNM 10 μM, HLM, fluorescence 558 nm
Experimental: The incubation mixture is 200 μL. […] Inhibition by TEPA for CYP2B6 were examined by adding ERNM after pre-incubation with NADPH-generating system at 37 °C for 30 min. […] In addition, the residual activity of samples was calculated by the percentage of fluorescence signal for the chemical inhibition group to the control group, with the absence of specific inhibitors. Data were analyzed using GraphPad Prism 8.0 (GraphPad Software, Inc., San Diego, CA, USA).

[4] = substrate: COc1ccc2c3c(cccc13)C(=O)N(CCNS(=O)(=O)c1ccc(C)cc1)C2=O; test: ERNM O-demethylation enzyme kinetics in recombinant CYP1A2; assay type: biochemical, human; conditions: other: CYP1A2 5 nM, ERNM 1-200 μM, 30 min, fluorescence 558 nm; pH 7.4; 37.0 °C
Experimental: as §1

[5] = substrate: COc1ccc2c3c(cccc13)C(=O)N(CCNS(=O)(=O)c1ccc(C)cc1)C2=O; test: ERNM O-demethylation enzyme kinetics in recombinant CYP1A1; assay type: biochemical, human; conditions: other: CYP1A1 5 nM, ERNM 1-200 μM, 30 min, fluorescence 558 nm; pH 7.4; 37.0 °C
Experimental: as §1

[6] = substrate inhibition constant, Table S1

Molecule: O[C@@H](CS)[C@@H](O)CS (racemic) [DTT, dithiothreitol]
Time at which CYP1A activity reached the peak (A549 cells [3]): 2 h

B1: CYP1A2 (Homo sapiens) (protein)
chain: T2 sequence (P05177 1-516)
notes: purchased BD Biosciences (Woburn, MA, USA)
Km [4]: 2.9 ± 0.5 µM
kcat [4]: 3.32 ± 0.15 nmol/min/nmol P450

B2: CYP1A1 (Homo sapiens) (protein)
chain: T1 sequence (P04798 1-512)
notes: as for B1
Km [5]: 1.0 ± 0.1 µM
kcat [5]: 1.92 ± 0.04 nmol/min/nmol P450

More lines, main results first:

Vmax for demethylation catalyzed by CYP1A1 (CYP1A1; CYP1A1 5 nM, ERNM 1-200 μM, 30 min): 1.92 ± 0.04 nmol/min/nmol P450
Kinetic behavior of CYP1A1 mediated demethylation (CYP1A1; kinetic plot, Figure S5): kinetics of substrate inhibition
Ksi of ERNM O-demethylation in CYP1A1 (CYP1A1; [6]): 611.3 ± 93.8 µM
Vmax for demethylation catalyzed by CYP1A2 (CYP1A2; CYP1A2 5 nM, ERNM 1-200 μM, 30 min): 3.32 ± 0.15 nmol/min/nmol P450
Kinetic behavior of CYP1A2 mediated demethylation (CYP1A2; kinetic plot, Figure S5): kinetics of substrate inhibition
Ksi of ERNM O-demethylation in CYP1A2 (CYP1A2; [6]): 281.2 ± 50.2 µM
Molecule: COc1ccc2c3c(cccc13)C(=O)N(CCNS(=O)(=O)c1ccc(C)cc1)C2=O [ERNM]
Selectivity of fluorescence response among CYP isoenzymes [1]: CYP1A1/1A2 mediated the generation of fluorescence signals at 558 nm over other CYP isoenzymes
Subcellular localization (overlap with ER-Tracker) (A549 cells [2]): exclusively target the ER

Effect on generation of the ERNM fluorescence signal in human liver microsomes (CYP1A): sufficiently suppressed
Molecule: O=c1cc(-c2ccccc2)oc2c1ccc1ccccc12 [α-naphthoflavone]
